Experiments:
Format in all cases: biochemical
[1] = biological target: T1, cathepsin B (Homo sapiens, UniProt P07858); assay: Cathepsin B enzyme inhibition in vitro (kinetic fluorescence assay); settings: cathepsin B isolated from human liver vs calpain I
T1 construct: cathepsin B—isolated from human liver (Calbiochem #219362); purchased Calbiochem 219362; host or cells: human liver (tissue-derived)
In short: (§1)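 Kinetic fluorescence (ex 390/em 460 nm) at room temperature in 50 mM MES, 2 mM EDTA, 0.05% Brij 35, 2.5 mM L-cysteine, pH 6.0. Cathepsin B (liver, 0.25 nM) with 100 μM Z-Phe-Arg-AMC; cathepsin L (liver, 1 nM) with 2 μM Z-Phe-Arg-AMC; recombinant E. coli cathepsin S (0.5 nM) with 20 μM Z-Val-Val-Arg-AMC. Ki via Cheng-Prusoff.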

[2] = biological target: T2, cathepsin K (Homo sapiens, UniProt P43235); assay: Cathepsin K enzyme inhibition in vitro (kinetic fluorescence assay); settings: cathepsin K activated from recombinant human procathepsin K vs calpain I
T2 construct: purchased Calbiochem 342001; host or cells: E. coli
T2 sequence (P43235 115-329): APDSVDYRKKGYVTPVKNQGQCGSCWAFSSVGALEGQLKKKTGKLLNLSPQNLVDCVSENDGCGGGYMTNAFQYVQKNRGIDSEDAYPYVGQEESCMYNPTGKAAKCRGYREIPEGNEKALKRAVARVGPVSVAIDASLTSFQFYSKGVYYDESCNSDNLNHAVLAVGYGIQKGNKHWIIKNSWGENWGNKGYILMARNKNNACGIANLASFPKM

[3] = biological target: T3, cathepsin L (Homo sapiens, UniProt P07711); assay: Cathepsin L enzyme inhibition in vitro (kinetic fluorescence assay); settings: cathepsin L isolated from human liver vs calpain I
T3 construct: cathepsin L—isolated from human liver (Calbiochem #219402); purchased Calbiochem 219402; host or cells: human liver (tissue-derived)
In short: as §1

[4] = biological target: T4, cathepsin S (Homo sapiens, UniProt P25774); assay: Cathepsin S enzyme inhibition in vitro (kinetic fluorescence assay); settings: recombinant human cathepsin S vs calpain I
T4 construct: purchased Calbiochem 219343; host or cells: E. coli
In short: as §1

T3 sequence (P07711 114-333): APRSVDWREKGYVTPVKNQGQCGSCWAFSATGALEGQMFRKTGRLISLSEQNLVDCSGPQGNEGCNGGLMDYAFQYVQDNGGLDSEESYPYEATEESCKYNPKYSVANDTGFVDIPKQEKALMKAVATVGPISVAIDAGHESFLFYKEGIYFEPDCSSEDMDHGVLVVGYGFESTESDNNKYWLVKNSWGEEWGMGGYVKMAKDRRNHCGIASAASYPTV
T4 sequence (P25774 115-331): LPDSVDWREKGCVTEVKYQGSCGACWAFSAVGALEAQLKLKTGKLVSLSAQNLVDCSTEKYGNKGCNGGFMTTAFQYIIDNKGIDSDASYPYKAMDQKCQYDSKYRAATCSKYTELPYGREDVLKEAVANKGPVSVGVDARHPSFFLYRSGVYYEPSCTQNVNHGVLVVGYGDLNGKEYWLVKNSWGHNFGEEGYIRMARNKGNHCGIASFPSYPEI

Compound | Sel cat. B: Ki(cathepsin B)/Ki(calpain) ratio [1] | Sel cat. K: Ki(cathepsin K)/Ki(calpain) ratio [2] | Sel cat. L: Ki(cathepsin L)/Ki(calpain) ratio [3] | Sel cat. S: Ki(cathepsin S)/Ki(calpain) ratio [4]
COc1ccc(CC(NC(=O)c2cccnc2-n2ccc(-c3ccc(F)cc3F)n2)C(=O)C(N)=O)cc1 (centres unmarked) [Example 97, N-(3-Amino-1-{[4-(methyloxy)phenyl]methyl}-2,3-dioxopropyl)-2-[3-(2,4-difluorophenyl)-1H-pyrazol-1-yl]pyridine-3-carboxamide] | ++ (++ means a Ki(cathepsin B)/Ki(calpain) ratio of ≧30) | + (+ means 10≦Ki(cathepsin K)/Ki(calpain)<30) | ++ (++ means a Ki(cathepsin L)/Ki(calpain) ratio of ≧50) | ++ (++ means a Ki(cathepsin S)/Ki(calpain) ratio of ≧100)
COc1ccc(CC(NC(=O)c2cccnc2-n2ccc(-c3ccc(Cl)cc3Cl)n2)C(=O)C(N)=O)cc1 (centres unmarked) [Example 98, N-(3-Amino-1-{[4-(methyloxy)phenyl]methyl}-2,3-dioxopropyl)-2-[3-(2,4-dichlorophenyl)-1H-pyrazol-1-yl]pyridine-3-carboxamide] | ++ (++ means a Ki(cathepsin B)/Ki(calpain) ratio of ≧30) | ++ (++ means a Ki(cathepsin K)/Ki(calpain) ratio of ≧30) | ++ (++ means a Ki(cathepsin L)/Ki(calpain) ratio of ≧50) | ++ (++ means a Ki(cathepsin S)/Ki(calpain) ratio of ≧100)
NC(=O)C(=O)C(Cc1ccccc1)NC(=O)c1cccnc1-n1ccc(-c2ccc(N3CCOCC3)cc2Cl)n1 (centres unmarked) [Example 99, N-[3-Amino-2,3-dioxo-1-(phenylmethyl)propyl]-2-[3-(2-chloro-4-morpholin-4-ylphenyl)-1H-pyrazol-1-yl]pyridine-3-carboxamide] | ++ (++ means a Ki(cathepsin B)/Ki(calpain) ratio of ≧30) | ++ (++ means a Ki(cathepsin K)/Ki(calpain) ratio of ≧30) | ++ (++ means a Ki(cathepsin L)/Ki(calpain) ratio of ≧50) | ++ (++ means a Ki(cathepsin S)/Ki(calpain) ratio of ≧100)
NC(=O)C(=O)C(Cc1ccccc1)NC(=O)c1cccnc1-n1cc2c(n1)-c1ccccc1OC2 (centres unmarked) [Example 100, N-[3-Amino-2,3-dioxo-1-(phenylmethyl)propyl]-2-chromeno[4,3-c]pyrazol-2(4H)-ylpyridine-3-carboxamide] | + (+ means 10≦Ki(cathepsin B)/Ki(calpain)<30) | ++ (++ means a Ki(cathepsin K)/Ki(calpain) ratio of ≧30) | ++ (++ means a Ki(cathepsin L)/Ki(calpain) ratio of ≧50) | ++ (++ means a Ki(cathepsin S)/Ki(calpain) ratio of ≧100)
NC(=O)C(=O)C(Cc1ccccc1)NC(=O)c1cccnc1-n1ccc(-c2ccc(N3CCOCC3)cc2F)n1 (centres unmarked) [Example 102, N-[3-Amino-2,3-dioxo-1-(phenylmethyl)propyl]-2-[3-(2-fluoro-4-morpholin-4-ylphenyl)-1H-pyrazol-1-yl]pyridine-3-carboxamide] | + (+ means 10≦Ki(cathepsin B)/Ki(calpain)<30) | ++ (++ means a Ki(cathepsin K)/Ki(calpain) ratio of ≧30) | ++ (++ means a Ki(cathepsin L)/Ki(calpain) ratio of ≧50) | ++ (++ means a Ki(cathepsin S)/Ki(calpain) ratio of ≧100)

Reference: patent publication US7799809B2, “Carboxamide compounds and their use as calpain inhibitors” (Abbott GmbH & Co. KG, priority 2006, dated 2010)
